Measured values from patent US8846669B2, “Oxazolidinone derivative and medical composition containing same” (Legochem Biosciences, Inc., priority 2011, dated 2014).
Values after ≈ are worked out from the molar mass of the structure shown. Where two headings read alike, the source gives them in different places.

Tests used:
Experiment in all cases: In vitro antibacterial activity, broth microdilution MIC90
Assay type in all cases: cell-based
Enterococcus faecalis = tested on: Enterococcus faecalis
Procedure: (§1) MIC90 was measured by broth microdilution method based on CLSI standards [reference: Clinical and Laboratory Standards Institute Document. (2000) Methods for Dilution Antimicrobial Susceptibility Test for Bacteria that Grow Aerobically-Fifth Edition: M7-A5. CLSI, Villanova, Pa.].
(§2) Activities of 12 strains including Staphylococcus aureus, Methicillin Resistant Staphylococcus aureus, Staphylococcus epidermidis, Methicillin Resistant Staphylococcus epidermidis, Enterococcus faecalis, Vancomycin Resistant Enterococcus faecalis, Linezolid and Vancomycin Resistant Enterococcus faecalis, Enterococcus faecium, Vancomycin Resistant Enterococcus faecium, Linezolid and Vancomycin Resistant Enterococcus faecium, and Moraxella catarrhalis, were measured, and results are shown in Table 1 below.
(§3) The final concentration of test material in the antibacterial test was from 0.063 μg/mL (minimum) to 128 μg/mL (maximum), and the final concentration of DMSO used as an excipient was 2.5% (V/V). Linezolid represented by Formula B below (manufactured by Pfizer) was used as a control and bacterial activity thereof was compared with those of the test materials.

Enterococcus faecium = tested on: Enterococcus faecium
Procedure: as §1, §2, §3

[1] = tested on: Linezolid and Vancomycin Resistant Enterococcus faecalis
Procedure: as §1, §2, §3

[2] = tested on: Linezolid and Vancomycin Resistant Enterococcus faecium (strain 10)
Procedure: as §1, §2, §3

[3] = tested on: Linezolid and Vancomycin Resistant Enterococcus faecium (strain 11)
Procedure: as §1, §2, §3

[4] = tested on: Methicillin Resistant Staphylococcus aureus
Procedure: as §1, §2, §3

[5] = tested on: Methicillin Resistant Staphylococcus epidermidis
Procedure: as §1, §2, §3

Moraxella catarrhalis = tested on: Moraxella catarrhalis
Procedure: as §1, §2, §3

Staphylococcus aureus = tested on: Staphylococcus aureus
Procedure: as §1, §2, §3

[6] = tested on: Staphylococcus epidermidis
Procedure: as §1, §2, §3

[7] = tested on: Vancomycin Resistant Enterococcus faecalis
Procedure: as §1, §2, §3

[8] = tested on: Vancomycin Resistant Enterococcus faecium
Procedure: as §1, §2, §3

[9] = Enterococcus faecalis, strain 5, E. faecalis, read-out: MIC90
[10] = Enterococcus faecium, strain 8, E. faecium, read-out: MIC90
[11] = Enterococcus faecalis, strain 7, E. faecalis VanA LR, read-out: MIC90
[12] = Enterococcus faecium, strain 10, E. faecium VanA LR, read-out: MIC90
[13] = Enterococcus faecium, strain 11, E. faecium VanA LR, read-out: MIC90
[14] = Staphylococcus aureus, strain 2, S. aureus MR, read-out: MIC90
[15] = Staphylococcus epidermidis, strain 4, S. epidermidis MR, read-out: MIC90
[16] = Moraxella catarrhalis, strain 12, M. catarrhalis, read-out: MIC90
[17] = Staphylococcus aureus, strain 1, S. aureus, read-out: MIC90
[18] = Staphylococcus epidermidis, strain 3, S. epidermidis, read-out: MIC90
[19] = Enterococcus faecalis, strain 6, E. faecalis VanA, read-out: MIC90
[20] = Enterococcus faecium, strain 9, E. faecium VanA, read-out: MIC90

Row | Structure (SMILES) | MIC90 (Enterococcus faecalis; [9]) [µg/mL] | MIC90 (Enterococcus faecium; [10]) [µg/mL] | MIC90 [1, 11] [µg/mL] | MIC90 [2, 12] [µg/mL] | MIC90 [3, 13] [µg/mL] | MIC90 [4, 14] [µg/mL] | MIC90 [5, 15] [µg/mL] | MIC90 (Moraxella catarrhalis; [16]) [µg/mL] | MIC90 (Staphylococcus aureus; [17]) [µg/mL] | MIC90 [6, 18] [µg/mL] | MIC90 [7, 19] [µg/mL] | MIC90 [8, 20] [µg/mL] | other results
1 | CN1CCN(c2ccc(-c3ccc(N4C[C@H](COc5ccon5)OC4=O)cc3F)cn2)C=N1 [Compound 45] | – | – | – | – | – | – | – | – | – | – | – | – | MIC90 (Enterococcus faecalis; strain 5, E. faecalis): 2 µg/mL (≈ 4.42 µM); MIC90 (Enterococcus faecium; strain 8, E. faecium): 0.5 µg/mL (≈ 1.11 µM); MIC90 ([1]; strain 7, E. faecalis VanA LR): >128 µg/mL; MIC90 ([2]; strain 10, E. faecium VanA LR): >128 µg/mL; MIC90 ([3]; strain 11, E. faecium VanA LR): >128 µg/mL; MIC90 ([4]; strain 2, S. aureus MR): 1 µg/mL (≈ 2.21 µM); MIC90 ([5]; strain 4, S. epidermidis MR): 4 µg/mL (≈ 8.84 µM); MIC90 (Moraxella catarrhalis; strain 12, M. catarrhalis): >128 µg/mL; MIC90 (Staphylococcus aureus; strain 1, S. aureus): 0.5 µg/mL (≈ 1.11 µM); MIC90 ([6]; strain 3, S. epidermidis): 1 µg/mL (≈ 2.21 µM); MIC90 ([7]; strain 6, E. faecalis VanA): 4 µg/mL (≈ 8.84 µM); MIC90 ([8]; strain 9, E. faecium VanA): 2 µg/mL (≈ 4.42 µM)
2 | C=CCN1CCN(c2ccc(-c3ccc(N4C[C@H](CNC(C)=O)OC4=O)cc3F)cn2)C=N1 [Compound 7] | – | – | – | – | – | – | – | – | – | – | – | – | MIC90 (Enterococcus faecalis; Enterococcus faecalis): 0.5 µg/mL (≈ 1.1 µM); MIC90 (Enterococcus faecium; Enterococcus faecium): 1 µg/mL (≈ 2.21 µM); MIC90 ([1]; Enterococcus faecalis): 4 µg/mL (≈ 8.84 µM); MIC90 ([2]; Enterococcus faecium): 4 µg/mL (≈ 8.84 µM); MIC90 ([3]; Enterococcus faecium): 4 µg/mL (≈ 8.84 µM); MIC90 ([4]; Staphylococcus aureus): 1 µg/mL (≈ 2.21 µM); MIC90 ([5]; Staphylococcus epidermidis): 1 µg/mL (≈ 2.21 µM); MIC90 (Moraxella catarrhalis; Moraxella catarrhalis): 2 µg/mL (≈ 4.42 µM); MIC90 (Staphylococcus aureus; Staphylococcus aureus): 0.5 µg/mL (≈ 1.1 µM); MIC90 ([6]; Staphylococcus epidermidis): 0.5 µg/mL (≈ 1.1 µM); MIC90 ([7]; Enterococcus faecalis): 1 µg/mL (≈ 2.21 µM); MIC90 ([8]; Enterococcus faecium): 1 µg/mL (≈ 2.21 µM)
3 | CC(=O)NC[C@H]1CN(c2ccc(-c3ccc(N4CCN(C=O)C=N4)nc3)c(F)c2)C(=O)O1 [Compound 52] | 0.5 (≈ 1.14 µM) | 0.5 (≈ 1.14 µM) | 1 (≈ 2.27 µM) | 1 (≈ 2.27 µM) | 1 (≈ 2.27 µM) | 0.5 (≈ 1.14 µM) | 0.5 (≈ 1.14 µM) | 4 (≈ 9.08 µM) | 0.25 (≈ 0.568 µM) | 0.25 (≈ 0.568 µM) | 0.5 (≈ 1.14 µM) | 0.5 (≈ 1.14 µM) | –
4 | CC(=O)NC[C@H]1CN(c2ccc(-c3ccc(N4C=NN(C(=O)COC(=O)CCC(=O)O)CC4)nc3)c(F)c2)C(=O)O1 [Compound 13] | 1 (≈ 1.75 µM) | 2 (≈ 3.51 µM) | 2 (≈ 3.51 µM) | 2 (≈ 3.51 µM) | 2 (≈ 3.51 µM) | 2 (≈ 3.51 µM) | 2 (≈ 3.51 µM) | 2 (≈ 3.51 µM) | 1 (≈ 1.75 µM) | 1 (≈ 1.75 µM) | 1 (≈ 1.75 µM) | 1 (≈ 1.75 µM) | –
5 | CC(=O)NC[C@H]1CN(c2ccc(-c3ccc(N4C=NN(C=O)CC4)nc3)c(F)c2)C(=O)O1 [Compound 1] | 0.5 (≈ 1.14 µM) | 0.5 (≈ 1.14 µM) | 2 (≈ 4.54 µM) | 2 (≈ 4.54 µM) | 2 (≈ 4.54 µM) | 1 (≈ 2.27 µM) | 1 (≈ 2.27 µM) | 2 (≈ 4.54 µM) | 0.5 (≈ 1.14 µM) | 0.25 (≈ 0.568 µM) | 0.5 (≈ 1.14 µM) | 0.5 (≈ 1.14 µM) | –
6 | O=C(CO)N1CCN(c2ccc(-c3ccc(N4C[C@H](COc5ccon5)OC4=O)cc3F)cn2)C=N1 [Compound 46] | – | – | – | – | – | – | – | – | – | – | – | – | MIC90 (Enterococcus faecalis; strain 5, E. faecalis): 2 µg/mL (≈ 4.03 µM); MIC90 (Enterococcus faecium; strain 8, E. faecium): 0.5 µg/mL (≈ 1.01 µM); MIC90 ([1]; strain 7, E. faecalis VanA LR): 128 µg/mL (≈ 258 µM); MIC90 ([2]; strain 10, E. faecium VanA LR): 128 µg/mL (≈ 258 µM); MIC90 ([3]; strain 11, E. faecium VanA LR): >128 µg/mL; MIC90 ([4]; strain 2, S. aureus MR): 0.5 µg/mL (≈ 1.01 µM); MIC90 ([5]; strain 4, S. epidermidis MR): 32 µg/mL (≈ 64.5 µM); MIC90 (Moraxella catarrhalis; strain 12, M. catarrhalis): >128 µg/mL; MIC90 (Staphylococcus aureus; strain 1, S. aureus): 0.25 µg/mL (≈ 0.504 µM); MIC90 ([6]; strain 3, S. epidermidis): 0.5 µg/mL (≈ 1.01 µM); MIC90 ([7]; strain 6, E. faecalis VanA): 4 µg/mL (≈ 8.06 µM); MIC90 ([8]; strain 9, E. faecium VanA): 2 µg/mL (≈ 4.03 µM)

Now from value to compound, other results behind:

Row | MIC90 (Enterococcus faecalis; [9]) [µg/mL] | MIC90 (Enterococcus faecium; [10]) [µg/mL] | MIC90 [1, 11] [µg/mL] | MIC90 [2, 12] [µg/mL] | MIC90 [3, 13] [µg/mL] | MIC90 [4, 14] [µg/mL] | MIC90 [5, 15] [µg/mL] | MIC90 (Moraxella catarrhalis; [16]) [µg/mL] | MIC90 (Staphylococcus aureus; [17]) [µg/mL] | MIC90 [6, 18] [µg/mL] | MIC90 [7, 19] [µg/mL] | MIC90 [8, 20] [µg/mL] | Structure (SMILES) | other results
7 | 2 (≈ 4.51 µM) | 1 (≈ 2.26 µM) | 16 (≈ 36.1 µM) | 16 (≈ 36.1 µM) | 16 (≈ 36.1 µM) | 2 (≈ 4.51 µM) | 4 (≈ 9.02 µM) | 8 (≈ 18 µM) | 2 (≈ 4.51 µM) | 1 (≈ 2.26 µM) | 2 (≈ 4.51 µM) | 2 (≈ 4.51 µM) | COC(=O)NC[C@H]1CN(c2ccc(-c3ccc(N4CCON=C4C)nc3)c(F)c2)C(=O)O1 [Compound 63] | –
8 | 0.25 (≈ 0.605 µM) | 0.25 (≈ 0.605 µM) | 1 (≈ 2.42 µM) | 1 (≈ 2.42 µM) | 2 (≈ 4.84 µM) | 0.5 (≈ 1.21 µM) | 0.5 (≈ 1.21 µM) | 2 (≈ 4.84 µM) | 0.25 (≈ 0.605 µM) | 0.25 (≈ 0.605 µM) | 0.25 (≈ 0.605 µM) | 0.25 (≈ 0.605 µM) | CC(=O)NC[C@H]1CN(c2ccc(-c3ccc(C4=NOCCN4)nc3)c(F)c2)C(=O)O1 [Compound 64] | –
9 | 0.25 (≈ 0.59 µM) | 0.125 (≈ 0.295 µM) | 1 (≈ 2.36 µM) | 1 (≈ 2.36 µM) | 2 (≈ 4.72 µM) | 0.5 (≈ 1.18 µM) | 0.5 (≈ 1.18 µM) | 1 (≈ 2.36 µM) | 0.125 (≈ 0.295 µM) | 0.25 (≈ 0.59 µM) | 0.25 (≈ 0.59 µM) | 0.25 (≈ 0.59 µM) | O=C1O[C@@H](Cn2ccnn2)CN1c1ccc(-c2ccc(C3=NOCCN3)nc2)c(F)c1 [Compound 66] | –
